Measured values published in PMC5996347, “2-Mercapto-Quinazolinones as Inhibitors of Type II NADH Dehydrogenase and Mycobacterium tuberculosis: Structure–Activity Relationships, Mechanism of Action and Absorption, Distribution, Metabolism, and Excretion Characterization” (ACS Infectious Diseases, 2018).

Key:
[1] = system: cyd knockout strain (cydC::aph); format: cell-based, Mycobacterium tuberculosis
[2] = molecular target: T1, recombinant MBP-MtNdh (MTb NDH-2) (Mycobacterium tuberculosis, UniProt P95160); test: Ndh activity assay (NADH oxidation at 340 nm); format: biochemical
T1 construct: The ORF corresponding to Rv1854c was codon optimized for E. coli; made in house; host or cells: E. coli BL21 (DE3) pLysS
T1 sequence (P95160 whole entry): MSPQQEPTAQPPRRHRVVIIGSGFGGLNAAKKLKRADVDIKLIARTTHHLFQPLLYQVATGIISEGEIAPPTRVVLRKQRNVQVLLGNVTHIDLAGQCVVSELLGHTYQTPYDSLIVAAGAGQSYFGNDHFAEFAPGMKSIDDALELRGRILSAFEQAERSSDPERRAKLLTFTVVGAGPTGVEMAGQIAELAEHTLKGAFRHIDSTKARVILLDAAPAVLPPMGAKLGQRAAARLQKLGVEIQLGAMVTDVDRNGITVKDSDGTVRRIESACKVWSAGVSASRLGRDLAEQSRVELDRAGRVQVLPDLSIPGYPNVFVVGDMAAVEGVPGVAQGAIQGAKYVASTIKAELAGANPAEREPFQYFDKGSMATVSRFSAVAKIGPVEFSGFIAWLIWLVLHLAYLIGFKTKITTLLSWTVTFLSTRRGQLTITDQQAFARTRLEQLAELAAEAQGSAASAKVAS

HepG2 [3] = test: cells; conditions: Homo sapiens, HepG2, read-out: HepG2 IC50
M. tuberculosis H37Rv = test: Extracellular flux analysis (oxygen consumption rate); conditions: 1 at 39 μM, 7 at 45 μM
in vitro = in vitro ADME; conditions: PAMPA, pH 7.4
Method: The permeability was performed using a 96-well precoated BD Gentest PAMPA plate (BD Biosciences, U.K.). Each well was divided into two chambers: donor and acceptor, separated by a lipid-oil-lipid trilayer constructed in a porous filter. The effective permeability, Pe, of the compound was measured at pH 7.4. Stock solutions (5 mM) of the compound were prepared in DMSO. The compound was then further diluted to 10 μM in phosphate buffered saline at pH 7.4. […] The compound dissolved in phosphate buffered saline was then added to the donor side of the membrane, and phosphate buffered saline without compound was added to the acceptor side. The PAMPA plate was left at room temperature for 5 h; after which time, an aliquot (100 μL) was then removed from both acceptor and donor compartments and mixed with acetonitrile (80 μL) containing an internal standard: donepezil at 50 ng/mL). The samples were centrifuged (10 min, 5 °C, 3270g) to sediment precipitated protein and sealed prior to UPLC-MS/MS analysis using a Quattro Premier XE (Waters Corp, USA). Pe was calculated as shown in the below equation. [drawing 2] where CA(t) = peak area of compound present in acceptor well at time (t) = 18 000 s; Cequi = [CD(t) × VD + CA(t) × VA]/(VD + VA); A = filter area; VD = donor well volume; VA = acceptor well volume; t = incubation time; CD(t) = peak area of compound present in donor well at time (t) = 18 000 s. Recovery of compound from donor and acceptor wells was calculated, and data was only accepted when recovery exceeded 70%.

[4] = system: MTb H37Rv in J774 macrophages; test: Activity against MTb in infected macrophages; format: cell-based, Mycobacterium tuberculosis; conditions: 7 days of drug treatment, CFU
Method: Figure S7. […] J774 macrophages in
24w plates (500,000 cells per well) were infected with MTb H37Rv at an MOI of 1:1 for 24 hours. Infected cells were washed three times and supplemented with macrophage growth medium with compounds at the indicated concentrations or the DMSO solvent. Cell medium was replenished every 3 days and cells lyzed after 7 days of drug treatment and plated on 7H11/OADC plates for CFU enumeration.
(1 picture or pasted object on this page, not shown here)

[5] = mouse liver microsomes
physchem = format: physicochemical; conditions: pH 7.4
Method: The chromatographic hydrophobicity index (CHI) was determined according the method previously described.[43],[44] Briefly, test compounds were prepared as 0.5 mM solutions in 50:50 acetonitrile/water and analyzed by reversed-phase HPLC-UV (wavelength 254 nm) using a Phenomenex Luna C18 100 Å, 150 × 4.6 mm, 5 μm column with a gradient of aqueous phase (50 mM ammonium acetate (pH 7.4)) and mobile phase (acetonitrile). By plotting the retention time of a set of reference compounds against known CHI values, the CHI value of test compounds was calculated according to their retention time.

[6] = format: in vitro ADME; conditions: mouse, plasma
Method: In brief, a 96-well equilibrium dialysis apparatus was used to determine the free fraction in plasma for each compound (HT Dialysis LLC, Gales Ferry, CT). Membranes (12–14 kDaA cutoff) were conditioned in deionized water for 60 min, followed by conditioning in 80:20 deionized water/ethanol overnight and then rinsed in water and isotonic buffer before use. Mouse plasma from appropriate species was removed from the freezer and allowed to thaw on the day of experiment. Thawed plasma was then centrifuged (Allegra X12-R, Beckman Coulter, USA) and spiked with test compound (final concentration 10 μg/mL), and 150 μL aliquots (n = 3 replicate determinations) were loaded into the 96-well equilibrium dialysis plate. Dialysis against isotonic buffer (150 μL) was carried out for 5 h in a temperature controlled incubator at ca. 37 °C (Barworld scientific Ltd., UK) using an orbital microplate shaker at 100 rpm (Barworld scientific Ltd., UK). At the end of the incubation period, 50 μL aliquots of plasma or buffer were transferred into a 96-well deep plate and the composition in each well was balanced with control fluid (50 μL), such that the volume of buffer to plasma is the same. Sample extraction was performed by the addition of 200 μL of acetonitrile containing an appropriate internal standard. Samples were allowed to mix for 1 min and then centrifuged at 3000 rpm in 96-well blocks for 15 min (Allegra X12-R, Beckman Coulter, USA) after which 150 μL of supernatant was removed to 50 μL of water. All samples were analyzed by UPLC-MS/MS on a Quattro Premier XE Mass Spectrometer (Waters Corporation, USA). The unbound fraction was determined as the ratio of the peak area in buffer to that in plasma.

HepG2 [7] = system: HepG2
Mouse pharmacokinetics = format: in vivo, female C57Bl/6 mice; conditions: female
Method: Test compound was dosed as a bolus solution intravenously at 3 mg free base/kg (dose volume: 5 mL/kg; dose vehicle: 10% DMSO; 40% PEG400; 50% saline) to female C57Bl/6 mice (n = 3) or dosed orally by gavage as a suspension at 10 or at 5, 30, or 100 mg free base/kg (dose volume: 10 mL/kg; dose vehicle: 1.0% carboxy methyl cellulose) to female C57Bl/6 mice (n = 3/dose level). Blood samples were taken from each mouse tail vein at predetermined time points postdose, mixed with nine volumes of distilled water, and stored frozen until UPLC-MS/MS analysis. Pharmacokinetic parameters were derived from the blood concentration time curve using PK Solutions software v 2.0 (Summit Research Services, USA).

MTb H37Rv = test: Intracellular ATP levels (BacTiter-Glo); conditions: 24 h drug exposure
[8] = C57Bl/6, mouse, in vivo, po, 10 mg/kg

O=C(CSc1nc2ccccc2c(=O)[nH]1)NC1CCCCC1 [Compound 1, N-Cyclohexyl-2-((4-oxo-3,4-dihydroquinazolin-2-yl)thio)acetamide]
Cyd KO reporter [1]: Not likely QcrB inhibitor
IC50 ([2]; NADH 250 μM, Q2 40 μM, mean ± SD, Figure 6 inset, read-out: IC50 against MBP-MtNdh): 23 ± 8 nM
Ki ([2]; varying Q2 or NADH, double reciprocal plots, read-out: Ki against MtNdh): 30 to 40 nM
Mode of inhibition against MtNdh ([2]; versus Q2 and NADH): noncompetitive mode of inhibition with both substrates
IC50 (HepG2 [3]): > 50000 nM
Effect on maximal respiration after CCCP uncoupling (M. tuberculosis H37Rv; CCCP 3 μM, compared to untreated control): significantly diminished maximal respiration
Effect on basal MTb OCR (M. tuberculosis H37Rv; ~45 min, glucose or palmitate): minimal effect
Papp at 5 h, 10 μM (in vitro): 8.3 ×10⁻⁶ cm/s
Activity against MTb growing in infected macrophages [4]: lacked activity
Mouse microsomal metabolite identification [5]: significant oxidation of the cyclohexyl and quinazolin-4(3H)-one rings as well as cleavage of the amide bond
chromatographic logD (physchem): 1.8
PPB (% unbound) [6]: 14 % unbound
HepG2 cytotoxicity (in words) (HepG2 [7]): no noticeable cytotoxicity
Clb (Mouse pharmacokinetics; C57Bl/6, mouse, in vivo): 23 mL/min/kg
Vd (Mouse pharmacokinetics; C57Bl/6, mouse, in vivo): 0.8 L/kg
bioavailability (Mouse pharmacokinetics; C57Bl/6, mouse, in vivo): 46%
AUC(0-t) (Mouse pharmacokinetics; [8]): 2610 ng·h/mL
Cmax (Mouse pharmacokinetics; [8]): 748 ng/mL
half-life (Mouse pharmacokinetics; C57Bl/6, whole blood, C57 mouse PK at 3 iv and 10 po (mg/kg), 1 free base, 7 HCl salt): 1.5 h
Cellular ATP levels in MTb (MTb H37Rv): depletion of cellular ATP levels
